Like-named read-outs stand apart in the source and are kept apart here.
How the values were obtained:
[1] = Cyto-toxicity assay (MTT) in MT2 cells without virus; format: cell-based; conditions: human
Description: For cyto-toxicity assay the same amount of MT2 cells as in antiviral assay without virus was added to the 96 well plates. The cyto-toxicity was measured using MTT reagent in parallel with p24 estimation. The percent viability is calculated in comparison with vehicle control.

[2] = Single dose oral pharmacokinetic study in mice; format: in vivo; conditions: for Cmax / Tmax / AUC(0-t) / AUC(0-inf): mouse, plasma
Description: The test item was administered through oral route to animals (rat/mice) at 30 mg/kg dose in a suitable vehicle at 10 ml/kg dose volume. Blood samples (˜50 uL at each time point) were collected from retro-orbital plexus using K3 EDTA as anticoagulant in eppendorf tubes at defined time intervals under light ether anesthesia. The samples were centrifuged at 3500×g to separate plasma and stored at −80° C. until analysis.
Sample analysis: Test samples were analyzed using LC-MS-MS after developing fit-for-purpose method for each of test compound.

HIV-1 strain 92HT599 = experiment: Antiviral activity: p24 estimation in MT2 cells infected with HIV-1 strain 92HT599; format: cell-based; conditions: for inhibition at 0.1 µM: read-out: Antiviral activity % inhibition 100 nM; for inhibition at 1 µM: read-out: Antiviral activity % inhibition 1000 nM
In short: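 Infection of MT2 cells used 10 TCID50/30000 cells, with compound present at ≤1% DMSO for ~96 h. p24 in well aliquots was quantified by kit. Percent inhibition is relative to vehicle controls.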

[3] = Oral PK @ 30 mg/ kg dose in mice (Table 6)
[4] = Oral PK @ 30 mg/ kg dose in mice (Table 6), read-out: AUCt
[5] = Human immunodeficiency virus 1, MT2, 96 h
[6] = Mice oral PK @30 mg/kg (Table 5)
[7] = Mice oral PK @30 mg/kg (Table 5), read-out: AUC 0-t
[8] = Human immunodeficiency virus 1, 100 nM, MT2 cells, HIV-1 92HT599, ~96 hours, p24
[9] = Human immunodeficiency virus 1, 1000 nM, MT2 cells, HIV-1 92HT599, ~96 hours, p24

COC1CCN(C(=O)[C@]23CC[C@@H](C4(C)CC4)[C@@H]2[C@H]2CC[C@@H]4[C@@]5(C)CC[C@H](OC(=O)[C@H]6C[C@@H](C(=O)O)C6(C)C)C(C)(C)[C@@H]5CC[C@@]4(C)[C@]2(C)CC3)CC1 [Example 29]
viability at 100 nM ([1]; 100 nM, MT2 cells, MTT, read-out: Cytotoxicity % viability 100 nM): 81% | viability at 1000 nM ([1]; 1000 nM, MT2 cells, MTT, read-out: Cytotoxicity % viability 1000 nM): 77% | Tlast [2, 3]: 48 h | Cmax [2, 3]: 11700 ng/mL | Tmax [2, 3]: 16 h | AUC(0-t) [2, 4]: 428 µg·h/mL | inhibition at 0.1 µM (HIV-1 strain 92HT599; [5]): 95% | inhibition at 1 µM (HIV-1 strain 92HT599; [5]): 99%

CC(C)(CC(=O)O[C@H]1CC[C@]2(C)[C@H]3CC[C@@H]4[C@H]5[C@H]([C@]6(C)CO6)CC[C@]5(C(=O)N[C@@H]5C[C@H](C(=O)N6CCCCC6)C5(C)C)CC[C@@]4(C)[C@]3(C)CC[C@H]2C1(C)C)C(=O)O [Example 14, 4-((1R,3aS,5aR,5bR,7aR,9S,11aR,11bR,13aR,13bS)-3a-((1R,3S)-2,2-dimethyl-3-(piperidine-1-carbonyl)cyclobutylcarbamoyl)-5a,5b,8,8,11a-pentamethyl-1-(2-methyloxiran-2-yl)icosa hydro-1H-cyclopenta[a]chrysen-9-yloxy)-2,2-dimethyl-4-oxobutanoicacid]
viability at 100 nM [1]: 86% | viability at 1000 nM [1]: 88% | Cmax [2, 6]: 4450 ng/mL | Tmax [2, 6]: 0.63 h | AUC(0-t) [2, 7]: 15.2 µg·h/mL | inhibition at 0.1 µM (HIV-1 strain 92HT599; [8]): 100% | inhibition at 1 µM (HIV-1 strain 92HT599; [9]): 100%

CCN1CCN(C(=O)[C@]23CC[C@@H](C4(C)CC4)[C@@H]2[C@H]2CC[C@@H]4[C@@]5(C)CC[C@H](OC(=O)CC(C)(C)CC(=O)O)C(C)(C)[C@@H]5CC[C@@]4(C)[C@]2(C)CC3)CC1 [Example 26, 5-(((1R,3aS,5aR,5bR,7aR,9S,11aR,11bR,13aR,13bR)-3a-(4-ethylpiperazine-1-carbonyl)-5a,5b,8,8,8,11a-pentamethyl-1-(1-methylcyclopropyl)icosahydro-1H-cyclopenta[a]chrysen-9-yl)oxy)-3,3-dimethyl-5-oxopentanoic acid]
viability at 100 nM [1]: 100% | viability at 1000 nM [1]: 99% | Tlast [2, 3]: 24 h | AUC(0-inf) [2, 3]: 151 µg·h/mL | Cmax [2, 3]: 6900 ng/mL | Tmax [2, 3]: 3.5 h | AUC(0-t) [2, 4]: 99.4 µg·h/mL | inhibition at 0.1 µM (HIV-1 strain 92HT599; [8]): 94% | inhibition at 1 µM (HIV-1 strain 92HT599; [9]): 99%

CC(C)(CC(=O)O[C@H]1CC[C@]2(C)[C@H]3CC[C@@H]4[C@H]5[C@H](C6(C)CC6)CC[C@]5(C(=O)N5CCC(C#N)(c6ccccc6)CC5)CC[C@@]4(C)[C@]3(C)CC[C@H]2C1(C)C)C(=O)O [Example 56, 4-((1R,3aS,5aR,5bR,7aR,9S,11aR,11bR,13aR,13bR)-3a-(4-cyano-4-phenylpiperidine-1-carbonyl)-5a,5b,8,8,11a-pentamethyl-1-(1-methylcyclopropyl)icosahydro-1H-cyclopenta[a]chrysen-9-yloxy)-2,2-dimethyl-4-oxobutanoic acid]
viability at 100 nM [1]: 83% | viability at 1000 nM [1]: 80% | Tlast [2, 3]: 24 h | AUC(0-inf) [2, 3]: 185 µg·h/mL | Cmax [2, 3]: 5900 ng/mL | Tmax [2, 3]: 7 h | AUC(0-t) [2, 4]: 95.5 µg·h/mL | inhibition at 0.1 µM (HIV-1 strain 92HT599; [8]): 76% | inhibition at 1 µM (HIV-1 strain 92HT599; [9]): 99%

C=C(C)[C@@H]1CC[C@]2(C(=O)N[C@@H]3C[C@H](c4nnc(C)o4)C3(C)C)CC[C@]3(C)[C@H](CC[C@@H]4[C@@]5(C)CC[C@H](OC(=O)[C@H]6C[C@@H](C(=O)O)C6(C)C)C(C)(C)[C@@H]5CC[C@]43C)[C@@H]12 [Example 21, (1R,3S)-3-(((1R,3aS,5aR,5bR,7aR,9S,11aR,11bR,13aR,13bR)-3a-((1R,3S)-2,2-dimethyl-3-(5-methyl-1,3,4-oxadiazol-2-yl)cyclobutylcarbamoyl)-5a,5b,8,8,11a-pentamethyl-1-(prop-1-en-2-yl)icosahydro-1H-cyclopenta[a]chrysen-9-yloxy)carbonyl)-2,2-dimethylcyclobutane carboxylicacid]
viability at 100 nM [1]: 94% | viability at 1000 nM [1]: 96% | Tlast [2, 3]: 24 h | AUC(0-inf) [2, 3]: 185 µg·h/mL | Cmax [2, 3]: 5900 ng/mL | Tmax [2, 3]: 7 h | AUC(0-t) [2, 4]: 95.5 µg·h/mL | inhibition at 0.1 µM (HIV-1 strain 92HT599; [8]): 100% | inhibition at 1 µM (HIV-1 strain 92HT599; [9]): 100%

CC1([C@@H]2CC[C@]3(C(=O)N4CCOCC4)CC[C@]4(C)[C@H](CC[C@@H]5[C@@]6(C)CC[C@H](OC(=O)[C@H]7C[C@@H](C(=O)O)C7(C)C)C(C)(C)[C@@H]6CC[C@]54C)[C@@H]23)CC1 [Example 28, (1R,3S)-2,2-dimethyl-3-((((1R,3aS,5aR,5bR,7aR,9S,11aR,11bR,13aR,13bR)-5a,5b,8,8,11a-pentamethyl-1-(1-methylcyclopropyl)-3a-(morpholine-4-carbonyl)icosahydro-1H-cyclopenta[a]chrysen-9-yl)oxy)carbonyl)cyclobutane-1-carboxylic acid]
viability at 100 nM [1]: 81% | viability at 1000 nM [1]: 78% | Tlast [2, 3]: 48 h | AUC(0-inf) [2, 3]: 398 µg·h/mL | Cmax [2, 3]: 4500 ng/mL | Tmax [2, 3]: 16 h | AUC(0-t) [2, 4]: 171 µg·h/mL | inhibition at 0.1 µM (HIV-1 strain 92HT599; [8]): 98% | inhibition at 1 µM (HIV-1 strain 92HT599; [9]): 99%

COCCOC1CCN(C(=O)[C@]23CC[C@@H](C4(C)CC4)[C@@H]2[C@H]2CC[C@@H]4[C@@]5(C)CC[C@H](OC(=O)CC(C)(C)C(=O)O)C(C)(C)[C@@H]5CC[C@@]4(C)[C@]2(C)CC3)CC1 [Example 41, 4-(((1R,3aS,5aR,5bR,7aR,9S,11aR,11bR,13aR,13bR)-3a-(4-(2-methoxyethoxyl)piperidine-1-carbonyl)-5a,5b,8,8,11a-pentamethyl-1-(1-methylcyclopropyl)icosahydro-1H-cyclopenta[a]chrysen-9-yl)oxy)-2,2-dimethyl-4-oxobutanoic acid]
viability at 100 nM [1]: 86% | viability at 1000 nM [1]: 86% | Tlast [2, 3]: 48 h | AUC(0-inf) [2, 3]: 240 µg·h/mL | Cmax [2, 3]: 9200 ng/mL | Tmax [2, 3]: 6.5 h | AUC(0-t) [2, 4]: 214 µg·h/mL | inhibition at 0.1 µM (HIV-1 strain 92HT599; [8]): 97% | inhibition at 1 µM (HIV-1 strain 92HT599; [9]): 99%

CCN1CCN(C(=O)[C@]23CC[C@@H](C4(C)CC4)[C@@H]2[C@H]2CC[C@@H]4[C@@]5(C)CC[C@H](OC(=O)CC(C)(C)C(=O)O)C(C)(C)[C@@H]5CC[C@@]4(C)[C@]2(C)CC3)CC1 [Example 12, 4-((1R,3aS,5aR,5bR,7aR,9S,11aR,11bR,13aR,13bR)-3a-(4-ethylpiperazine-1-carbonyl)-5a,5b,8,8,11a-pentamethyl-1-(1-methylcyclopropyl)icosahydro-1H-cyclopenta[a]chrysen-9-yloxy)-2,2-dimethyl-4-oxobutanoicacid]
viability at 100 nM [1]: 100% | viability at 1000 nM [1]: 99% | Cmax [2, 6]: 8160 ng/mL | Tmax [2, 6]: 4 h | AUC(0-t) [2, 7]: 201 µg·h/mL | inhibition at 0.1 µM (HIV-1 strain 92HT599; [8]): 100% | inhibition at 1 µM (HIV-1 strain 92HT599; [9]): 100%

CC1([C@@H]2CC[C@]3(C(=O)N4CCN(CCN5CCOCC5)CC4)CC[C@]4(C)[C@H](CC[C@@H]5[C@@]6(C)CC[C@H](OC(=O)[C@H]7C[C@@H](C(=O)O)C7(C)C)C(C)(C)[C@@H]6CC[C@]54C)[C@@H]23)CC1 [Example 32]
viability at 100 nM [1]: 100% | viability at 1000 nM [1]: 95% | Tlast [2, 3]: 48 h | AUC(0-inf) [2, 3]: 240 µg·h/mL | Cmax [2, 3]: 9200 ng/mL | Tmax [2, 3]: 6.5 h | AUC(0-t) [2, 4]: 214 µg·h/mL | inhibition at 0.1 µM (HIV-1 strain 92HT599; [8]): 99% | inhibition at 1 µM (HIV-1 strain 92HT599; [9]): 99%
